Assay [1] concerns the target rat brain benzodiazepine receptors (3H-diazepam receptor). The experiment in a line: benzodiazepine-receptor binding test in vitro (inhibition of specific 3H-diazepam binding to rat brain membranes). The following applies: 3H-diazepam displacement, read-out: inhibition constant Ki (Ki = IC50/(1+C/KD)) for specific 3H-diazepam binding. An excerpt:
The pharmacological properties of the compounds of the present invention were first investigated by submitting some representative members of this class to the benzodiazepine-receptor binding-test in vitro.

For another assay, the system named is rats. Kind of assay: conflict test in rats (punished responding, Vogel method as modified by Lippa). The format is in vivo. The note with it: Rattus norvegicus, ip, 1 h, i.p., tested 60 minutes after administration, read-out: minimal effective dose (MED) significantly increasing the number of shocks versus controls. As for the experimental part:
The ability of the compounds of the present invention to increase punished responding in animals in a conflict situation, a procedure with high validity for predicting the anxiolytic effect of drugs, was assessed by testing these compounds in rats according to the method described by J. R. Vogel, B. Beer, E. D. Clody in Psychopharmacologia 21, 1-7 (1971) as modified by A. S. Lippa et al., in "Anxiolytics, Industrial Pharmacology",Vol. 3, Futura Publishing, 1979, pages 41-81. Briefly, rats are deprived for water for 48 hours and deprived of food for 20 hours prior to testing. Sixty minutes after administration of the test compound each rat is placed in an especially equipped cage. A glucose solution is available from a tap located in the rear of the cage. A constant pulsating shocking current is connected between the grid floor and the tap. Each rat is allowed 20 seconds of non-shocked drinking, then cycles of 5 seconds shock-off and 5 seconds shock-on began. During the shock-on period each lick on the tap is accompanied by shock. The number of shocks received by each animal is recorded and minimal effective doses are determined.

One may read the minimal effective dose as the lowest level tested that produced the effect sought. For the molecule `COCCOCc1nn2c(-c3ccc(OC)cc3)nnc2c2ccccc12` [Example 1, 6-[(2-Methoxyethoxy)methyl]-3-(4-methoxyphenyl)-1,2,4-triazolo[3,4-a]phthalazine], the Ki in assay [1] was 20 nM. The minimal effective dose in the assay on rats is 5 mg/kg.

In the case of `COc1ccc(-c2nnc3c4ccccc4c(CN4CCCC4)nn23)cc1` [Example 2, 3-(4-Methoxyphenyl)-6-[(1-pyrrolidinyl)methyl]-1,2,4-triazolo[3,4-a]phthalazine], the Ki in assay [1] was 150 nM.
